{"source": "paper PMC7316778", "about": "(Nature Communications, 2020)", "key": {"BRAF [1]": {"target": "BRAF (Homo sapiens, UniProt P15056)", "sequence (P15056 whole entry, species assumed)": "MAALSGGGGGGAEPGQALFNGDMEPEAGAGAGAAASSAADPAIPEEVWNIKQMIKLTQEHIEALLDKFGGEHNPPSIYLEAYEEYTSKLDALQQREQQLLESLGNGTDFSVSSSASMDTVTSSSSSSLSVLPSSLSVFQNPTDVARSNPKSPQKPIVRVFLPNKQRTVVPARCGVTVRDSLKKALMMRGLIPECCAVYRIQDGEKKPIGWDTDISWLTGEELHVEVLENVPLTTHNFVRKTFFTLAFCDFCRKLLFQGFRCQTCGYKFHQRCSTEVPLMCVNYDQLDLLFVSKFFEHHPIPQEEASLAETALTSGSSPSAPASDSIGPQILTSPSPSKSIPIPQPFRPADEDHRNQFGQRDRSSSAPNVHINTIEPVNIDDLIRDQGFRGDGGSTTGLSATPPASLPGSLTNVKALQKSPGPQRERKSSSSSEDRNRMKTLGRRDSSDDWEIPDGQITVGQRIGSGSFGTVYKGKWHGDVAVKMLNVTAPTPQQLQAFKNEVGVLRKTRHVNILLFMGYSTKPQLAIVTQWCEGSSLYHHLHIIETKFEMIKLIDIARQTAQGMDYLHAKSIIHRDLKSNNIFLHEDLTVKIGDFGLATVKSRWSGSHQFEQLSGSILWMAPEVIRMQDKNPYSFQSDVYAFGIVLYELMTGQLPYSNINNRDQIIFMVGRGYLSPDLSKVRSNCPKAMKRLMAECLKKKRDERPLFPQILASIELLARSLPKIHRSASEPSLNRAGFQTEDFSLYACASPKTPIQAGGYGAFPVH", "assay": "SelectScreen kinase assay"}, "BRAF [2]": {"system": "BRAF", "assay": "SelectScreen kinase assay", "conditions": "IC50 on that kinase divided by IC50 on FES^S700C"}, "PKMYT1": {"target": "T1, PKMYT1 (Homo sapiens, UniProt Q99640)", "T1 sequence (Q99640 1-499)": "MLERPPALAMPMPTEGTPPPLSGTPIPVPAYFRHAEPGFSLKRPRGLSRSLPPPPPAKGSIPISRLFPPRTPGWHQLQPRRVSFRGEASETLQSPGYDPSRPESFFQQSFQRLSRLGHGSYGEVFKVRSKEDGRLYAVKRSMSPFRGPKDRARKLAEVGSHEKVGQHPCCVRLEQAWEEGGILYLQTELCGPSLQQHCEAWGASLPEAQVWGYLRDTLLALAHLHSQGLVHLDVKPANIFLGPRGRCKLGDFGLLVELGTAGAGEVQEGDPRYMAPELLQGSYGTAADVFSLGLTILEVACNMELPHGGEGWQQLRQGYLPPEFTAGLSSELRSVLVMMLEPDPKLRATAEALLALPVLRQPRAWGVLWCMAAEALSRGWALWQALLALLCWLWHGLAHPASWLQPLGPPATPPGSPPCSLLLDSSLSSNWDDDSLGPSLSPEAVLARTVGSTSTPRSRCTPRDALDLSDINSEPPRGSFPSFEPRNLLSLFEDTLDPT", "assay": "SelectScreen kinase assay"}, "ULK2": {"target": "T2, ULK2 (Homo sapiens, UniProt Q8IYT8)", "T2 sequence (Q8IYT8 1-1036)": "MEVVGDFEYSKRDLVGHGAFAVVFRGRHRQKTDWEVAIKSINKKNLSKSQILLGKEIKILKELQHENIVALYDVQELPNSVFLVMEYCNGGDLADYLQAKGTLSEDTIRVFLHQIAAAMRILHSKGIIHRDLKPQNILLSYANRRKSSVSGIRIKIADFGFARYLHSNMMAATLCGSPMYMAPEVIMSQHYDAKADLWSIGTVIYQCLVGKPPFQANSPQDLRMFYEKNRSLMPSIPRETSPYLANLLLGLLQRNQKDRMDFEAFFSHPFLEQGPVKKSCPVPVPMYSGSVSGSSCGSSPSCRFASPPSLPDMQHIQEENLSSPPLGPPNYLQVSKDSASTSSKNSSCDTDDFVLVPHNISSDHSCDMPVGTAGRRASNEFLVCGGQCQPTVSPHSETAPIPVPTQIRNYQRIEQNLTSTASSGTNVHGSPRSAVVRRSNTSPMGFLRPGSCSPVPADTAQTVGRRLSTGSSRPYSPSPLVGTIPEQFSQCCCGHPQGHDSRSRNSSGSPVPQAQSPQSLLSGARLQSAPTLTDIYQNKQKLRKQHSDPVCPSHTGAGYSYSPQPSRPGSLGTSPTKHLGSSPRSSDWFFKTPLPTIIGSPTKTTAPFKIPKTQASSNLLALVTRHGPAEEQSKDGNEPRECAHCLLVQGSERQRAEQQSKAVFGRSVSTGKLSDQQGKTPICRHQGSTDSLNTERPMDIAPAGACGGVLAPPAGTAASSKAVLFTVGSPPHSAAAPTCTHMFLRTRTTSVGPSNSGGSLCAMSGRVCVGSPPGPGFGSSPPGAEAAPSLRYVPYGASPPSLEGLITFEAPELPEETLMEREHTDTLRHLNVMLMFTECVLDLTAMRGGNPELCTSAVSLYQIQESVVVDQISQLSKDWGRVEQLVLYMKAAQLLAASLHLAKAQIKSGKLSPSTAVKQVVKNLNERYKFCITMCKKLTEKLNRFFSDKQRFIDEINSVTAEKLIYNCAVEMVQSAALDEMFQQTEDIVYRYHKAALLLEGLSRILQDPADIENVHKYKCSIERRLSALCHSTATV", "assay": "SelectScreen kinase assay"}, "AURKB (Aurora B)": {"target": "AURKB (Aurora B) (Homo sapiens, UniProt Q96GD4)", "sequence (Q96GD4 whole entry)": "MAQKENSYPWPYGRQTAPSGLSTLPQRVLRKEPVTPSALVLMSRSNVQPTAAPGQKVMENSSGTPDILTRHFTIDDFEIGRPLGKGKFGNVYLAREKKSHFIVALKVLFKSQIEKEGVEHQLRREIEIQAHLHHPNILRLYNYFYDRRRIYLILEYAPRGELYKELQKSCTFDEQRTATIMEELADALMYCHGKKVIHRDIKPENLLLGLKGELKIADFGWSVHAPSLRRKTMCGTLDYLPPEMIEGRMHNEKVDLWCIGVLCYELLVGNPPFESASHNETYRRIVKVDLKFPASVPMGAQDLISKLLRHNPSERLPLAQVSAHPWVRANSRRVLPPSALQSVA", "assay": "SelectScreen kinase assay"}, "NEK7": {"target": "NEK7 (Homo sapiens, UniProt Q8TDX7)", "assay": "SelectScreen kinase assay"}, "FES^S700C": {"target": "FES^S700C (Homo sapiens, UniProt P07332, S700C)", "sequence (P07332 whole entry S700C)": "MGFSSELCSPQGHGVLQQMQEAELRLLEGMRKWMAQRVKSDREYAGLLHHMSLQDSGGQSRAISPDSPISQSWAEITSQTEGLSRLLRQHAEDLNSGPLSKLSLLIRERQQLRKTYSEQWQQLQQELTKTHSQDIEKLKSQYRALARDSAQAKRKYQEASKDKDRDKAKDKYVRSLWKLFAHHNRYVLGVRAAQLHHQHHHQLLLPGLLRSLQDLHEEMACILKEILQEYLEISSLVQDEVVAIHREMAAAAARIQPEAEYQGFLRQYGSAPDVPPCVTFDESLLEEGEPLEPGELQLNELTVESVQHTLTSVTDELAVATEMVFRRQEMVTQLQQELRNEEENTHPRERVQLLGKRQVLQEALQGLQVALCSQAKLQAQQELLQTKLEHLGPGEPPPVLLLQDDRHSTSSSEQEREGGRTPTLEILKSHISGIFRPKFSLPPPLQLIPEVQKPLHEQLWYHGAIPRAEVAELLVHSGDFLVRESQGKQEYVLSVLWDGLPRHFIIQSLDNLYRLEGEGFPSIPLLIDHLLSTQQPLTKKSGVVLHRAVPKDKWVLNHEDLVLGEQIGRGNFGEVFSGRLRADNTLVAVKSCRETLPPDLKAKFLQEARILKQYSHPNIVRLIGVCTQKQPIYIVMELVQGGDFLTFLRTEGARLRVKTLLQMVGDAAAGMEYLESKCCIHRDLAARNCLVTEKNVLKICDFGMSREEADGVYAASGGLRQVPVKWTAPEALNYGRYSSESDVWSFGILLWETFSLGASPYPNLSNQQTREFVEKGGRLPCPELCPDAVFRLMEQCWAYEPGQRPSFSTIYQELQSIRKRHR", "assay": "Inhibitor washout by dialysis", "assay_type": "binding", "design": "expressed in transfected cells; host or cells: HEK293T (transient, PEI)"}, "STK38L (NDR2)": {"target": "STK38L (NDR2) (Homo sapiens, UniProt Q9Y2H1)", "sequence (Q9Y2H1 whole entry)": "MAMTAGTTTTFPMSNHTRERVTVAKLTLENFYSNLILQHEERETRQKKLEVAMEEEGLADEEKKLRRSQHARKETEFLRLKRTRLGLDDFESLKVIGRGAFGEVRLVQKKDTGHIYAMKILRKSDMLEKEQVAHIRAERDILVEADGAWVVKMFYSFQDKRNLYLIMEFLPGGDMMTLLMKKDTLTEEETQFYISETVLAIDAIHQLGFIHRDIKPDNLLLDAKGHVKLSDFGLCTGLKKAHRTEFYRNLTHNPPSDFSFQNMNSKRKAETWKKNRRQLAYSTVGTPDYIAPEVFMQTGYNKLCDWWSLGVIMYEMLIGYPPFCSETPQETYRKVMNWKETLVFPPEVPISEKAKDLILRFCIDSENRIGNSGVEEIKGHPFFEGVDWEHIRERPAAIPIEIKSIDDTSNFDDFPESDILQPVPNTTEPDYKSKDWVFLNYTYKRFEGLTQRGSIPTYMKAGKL", "assay": "SelectScreen kinase assay", "conditions": "for Inhibition at 1 µM (%): LanthaScreen Binding"}, "ACVR2A": {"target": "ACVR2A (Homo sapiens, UniProt P27037)", "sequence (P27037 20-513)": "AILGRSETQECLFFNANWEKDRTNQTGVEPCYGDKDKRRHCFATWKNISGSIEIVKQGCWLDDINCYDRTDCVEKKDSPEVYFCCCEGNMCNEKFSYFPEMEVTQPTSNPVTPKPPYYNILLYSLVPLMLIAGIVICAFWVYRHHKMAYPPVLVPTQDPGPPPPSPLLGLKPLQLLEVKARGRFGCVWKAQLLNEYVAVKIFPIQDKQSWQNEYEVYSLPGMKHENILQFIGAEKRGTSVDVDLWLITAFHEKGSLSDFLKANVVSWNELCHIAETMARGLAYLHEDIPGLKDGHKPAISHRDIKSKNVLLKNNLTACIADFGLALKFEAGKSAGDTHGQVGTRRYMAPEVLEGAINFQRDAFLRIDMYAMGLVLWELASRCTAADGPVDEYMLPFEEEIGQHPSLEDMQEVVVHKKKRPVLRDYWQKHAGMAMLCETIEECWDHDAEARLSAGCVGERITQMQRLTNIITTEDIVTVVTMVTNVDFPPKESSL", "assay": "SelectScreen kinase assay"}, "FLT3 [3]": {"target": "FLT3 (Homo sapiens, UniProt P36888)", "sequence (P36888 27-993, species assumed)": "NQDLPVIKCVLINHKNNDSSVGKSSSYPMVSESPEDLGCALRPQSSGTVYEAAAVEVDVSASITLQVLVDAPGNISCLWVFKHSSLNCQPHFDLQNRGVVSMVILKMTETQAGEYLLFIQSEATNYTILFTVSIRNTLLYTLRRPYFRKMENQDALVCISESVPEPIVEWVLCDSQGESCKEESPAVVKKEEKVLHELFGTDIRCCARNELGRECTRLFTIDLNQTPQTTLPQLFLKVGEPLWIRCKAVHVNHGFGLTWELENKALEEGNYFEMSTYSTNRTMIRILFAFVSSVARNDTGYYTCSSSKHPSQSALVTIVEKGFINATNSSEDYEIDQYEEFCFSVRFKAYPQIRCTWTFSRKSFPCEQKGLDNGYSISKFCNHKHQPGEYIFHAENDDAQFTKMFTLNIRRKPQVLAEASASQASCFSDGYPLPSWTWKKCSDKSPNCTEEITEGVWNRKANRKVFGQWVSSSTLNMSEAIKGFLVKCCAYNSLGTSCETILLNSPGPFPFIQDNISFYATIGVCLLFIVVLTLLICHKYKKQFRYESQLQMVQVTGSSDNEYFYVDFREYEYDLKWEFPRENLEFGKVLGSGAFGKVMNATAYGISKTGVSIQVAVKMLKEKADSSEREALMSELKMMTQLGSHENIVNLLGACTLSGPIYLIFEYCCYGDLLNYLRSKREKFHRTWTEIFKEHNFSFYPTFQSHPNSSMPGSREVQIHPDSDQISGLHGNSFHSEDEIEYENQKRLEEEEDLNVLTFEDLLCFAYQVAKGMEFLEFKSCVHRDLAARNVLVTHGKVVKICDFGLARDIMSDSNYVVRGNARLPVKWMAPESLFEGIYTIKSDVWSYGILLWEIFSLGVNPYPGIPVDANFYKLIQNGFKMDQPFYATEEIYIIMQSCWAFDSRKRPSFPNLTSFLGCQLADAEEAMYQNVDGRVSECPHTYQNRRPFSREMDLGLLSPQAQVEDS", "assay": "SelectScreen kinase assay"}, "FLT3 [4]": {"system": "FLT3", "assay": "SelectScreen kinase assay", "conditions": "IC50 on that kinase divided by IC50 on FES^S700C"}, "RIPK3": {"target": "RIPK3 (Homo sapiens, UniProt Q9Y572)", "sequence (Q9Y572 whole entry)": "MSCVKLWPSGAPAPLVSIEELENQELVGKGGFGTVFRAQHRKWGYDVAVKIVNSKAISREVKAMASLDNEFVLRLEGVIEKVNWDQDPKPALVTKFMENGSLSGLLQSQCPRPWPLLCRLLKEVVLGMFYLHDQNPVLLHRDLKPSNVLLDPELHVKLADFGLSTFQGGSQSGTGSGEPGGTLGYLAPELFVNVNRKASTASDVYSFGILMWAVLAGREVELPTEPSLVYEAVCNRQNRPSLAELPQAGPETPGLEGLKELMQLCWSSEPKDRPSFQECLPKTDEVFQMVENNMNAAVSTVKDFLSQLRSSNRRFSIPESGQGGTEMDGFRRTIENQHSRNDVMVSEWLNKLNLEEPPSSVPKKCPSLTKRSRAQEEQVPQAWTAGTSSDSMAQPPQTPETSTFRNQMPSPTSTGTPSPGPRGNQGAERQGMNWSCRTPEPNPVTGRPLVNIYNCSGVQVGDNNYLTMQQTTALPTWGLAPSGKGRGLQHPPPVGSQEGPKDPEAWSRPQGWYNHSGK", "assay": "SelectScreen kinase assay"}, "PLK1": {"target": "PLK1 (Homo sapiens, UniProt P53350)", "sequence (P53350 whole entry)": "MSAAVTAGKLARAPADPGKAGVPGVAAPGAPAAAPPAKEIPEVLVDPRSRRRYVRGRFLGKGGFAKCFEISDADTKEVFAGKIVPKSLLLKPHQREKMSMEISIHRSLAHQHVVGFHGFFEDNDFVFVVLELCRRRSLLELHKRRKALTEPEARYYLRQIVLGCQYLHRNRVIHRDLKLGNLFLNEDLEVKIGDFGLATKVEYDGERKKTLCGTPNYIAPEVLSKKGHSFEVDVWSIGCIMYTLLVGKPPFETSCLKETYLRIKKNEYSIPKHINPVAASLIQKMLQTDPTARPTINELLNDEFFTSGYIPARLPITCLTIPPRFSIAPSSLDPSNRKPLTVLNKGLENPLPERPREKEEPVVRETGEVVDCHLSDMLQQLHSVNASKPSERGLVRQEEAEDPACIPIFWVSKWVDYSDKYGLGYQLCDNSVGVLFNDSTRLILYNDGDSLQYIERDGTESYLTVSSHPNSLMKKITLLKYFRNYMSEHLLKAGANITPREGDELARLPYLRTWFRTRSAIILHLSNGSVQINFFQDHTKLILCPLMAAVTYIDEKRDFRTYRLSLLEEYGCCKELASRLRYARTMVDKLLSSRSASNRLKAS", "assay": "SelectScreen kinase assay"}, "[5]": {"conditions": "1 h, 1 μM WEL028, 1 h preincubation"}, "[6]": {"conditions": "read-out: Inhibition at 1 µM (%), 1 µM, LanthaScreen Binding"}}, "note": "pIC50: −log10 of the molar value. Values joined by “and” are separate entries in the source; they are usually repeats but may differ in a detail not shown here. Identical values can stand only once. Like-named read-outs stand apart in the source and are kept apart here.", "data": [{"smiles": "C#CCOc1ccc(Nc2ncc(Cl)c(Nc3ccccc3NC(=O)C=C)n2)c(OC)c1", "note": "[Compound 6]", "values": [{"measurement": "pIC50", "setting": "BRAF [1]", "value": 7.00}, {"measurement": "inhibition at 1 µM", "setting": "BRAF [1]; [5]", "value": 94, "unit": "%"}, {"measurement": "inhibition at 10 µM", "setting": "BRAF [1]; 1 h, log[inhibitor] (M) -5.00, ZLYTE, ATP 100", "value": 98, "unit": "%"}, {"measurement": "inhibition at 3.311 µM", "setting": "BRAF [1]; 1 h, log[inhibitor] (M) -5.48, ZLYTE, ATP 100", "value": 100, "unit": "%"}, {"measurement": "inhibition at 1.122 µM", "setting": "BRAF [1]; 1 h, log[inhibitor] (M) -5.95, ZLYTE, ATP 100", "value": 96, "unit": "%"}, {"measurement": "inhibition at 0.3715 µM", "setting": "BRAF [1]; 1 h, log[inhibitor] (M) -6.43, ZLYTE, ATP 100", "value": 65, "unit": "%"}, {"measurement": "inhibition at 0.123 µM", "setting": "BRAF [1]; 1 h, log[inhibitor] (M) -6.91, ZLYTE, ATP 100", "value": 53, "unit": "%"}, {"measurement": "inhibition at 0.04074 µM", "setting": "BRAF [1]; 1 h, log[inhibitor] (M) -7.39, ZLYTE, ATP 100", "value": 28, "unit": "%"}, {"measurement": "inhibition at 0.0138 µM", "setting": "BRAF [1]; 1 h, log[inhibitor] (M) -7.86, ZLYTE, ATP 100", "value": 15, "unit": "%"}, {"measurement": "inhibition at 0.001514 µM", "setting": "BRAF [1]; 1 h, log[inhibitor] (M) -8.82, ZLYTE, ATP 100", "value": 3, "unit": "%"}, {"measurement": "Inhibition at 1 µM (%)", "setting": "BRAF [1]; BRAF, 1 µM, ZLYTE, ATP 100, listed as WEL028, 1 µM", "value": 97, "unit": "%"}, {"measurement": "inhibition at 1 µM", "setting": "BRAF [1]; read-out: Inhibition at 1 µM (%), BRAF, 1 µM, ZLYTE, ATP 100", "value": 90, "unit": "%"}, {"measurement": "Apparent fold selectivity", "setting": "BRAF [2]", "value": 25, "unit": "fold"}, {"measurement": "Inhibition (%)", "setting": "PKMYT1; 1 μM WEL028, 1 h preincubation", "value": 13, "unit": "%"}, {"measurement": "Inhibition at 1 µM (%)", "setting": "PKMYT1; PKMYT1, 1 µM, LanthaScreen Binding, listed as WEL028, 1 µM", "value": 9, "unit": "%"}, {"measurement": "inhibition at 1 µM", "setting": "PKMYT1; read-out: Inhibition at 1 µM (%), PKMYT1, 1 µM, LanthaScreen Binding", "value": 17, "unit": "%"}, {"measurement": "Inhibition at 1 µM (%)", "setting": "ULK2; 1 µM, LanthaScreen Binding, listed as WEL028, 1 µM", "value": 4, "unit": "%"}, {"measurement": "inhibition at 1 µM", "setting": "ULK2; [5]", "value": 3, "unit": "%"}, {"measurement": "inhibition at 1 µM", "setting": "ULK2; [6]", "value": 2, "unit": "%"}, {"measurement": "inhibition at 1 µM", "setting": "AURKB (Aurora B); [5]", "value": 37, "unit": "%"}, {"measurement": "Inhibition at 1 µM (%)", "setting": "AURKB (Aurora B); AURKB (Aurora B), 1 µM, ZLYTE, ATP Km app, listed as WEL028, 1 µM", "value": 32, "unit": "%"}, {"measurement": "inhibition at 1 µM", "setting": "AURKB (Aurora B); read-out: Inhibition at 1 µM (%), AURKB (Aurora B), 1 µM, ZLYTE, ATP Km app", "value": 41, "unit": "%"}, {"measurement": "inhibition at 1 µM", "setting": "NEK7; [5]", "value": -3, "unit": "%"}, {"measurement": "Inhibition at 1 µM (%)", "setting": "NEK7; NEK7, 1 µM, ZLYTE, ATP Km app, listed as WEL028, 1 µM", "value": -2, "unit": "%"}, {"measurement": "IC80", "setting": "FES^S700C; concentration used for dialysis, 30 min, rt", "value": 0.231, "unit": "µM"}, {"measurement": "Relative FES labeling (% of vehicle), Pre-dialysis", "setting": "FES^S700C; inhibitor at IC80, WEL033 250 nM, replicates, listed as WEL028", "value": "2.76% and 2.085% and 2.269%"}, {"measurement": "Relative FES labeling (% of vehicle), Post-dialysis", "setting": "FES^S700C; overnight dialysis at 4 °C, WEL033 250 nM, replicates, listed as WEL028", "value": "10.52% and 32.8765% and 11.5588%"}, {"measurement": "Inhibition at 1 µM (%)", "setting": "STK38L (NDR2)", "value": 2, "unit": "%"}, {"measurement": "Inhibition at 1 µM (%)", "setting": "STK38L (NDR2); listed as WEL028, 1 µM", "value": 7, "unit": "%"}, {"measurement": "inhibition at 1 µM", "setting": "STK38L (NDR2); [5]", "value": 5, "unit": "%"}, {"measurement": "inhibition at 1 µM", "setting": "ACVR2A; [5]", "value": 5, "unit": "%"}, {"measurement": "Inhibition at 1 µM (%)", "setting": "ACVR2A; ACVR2A, 1 µM, LanthaScreen Binding, listed as WEL028, 1 µM", "value": 6, "unit": "%"}, {"measurement": "inhibition at 1 µM", "setting": "ACVR2A; read-out: Inhibition at 1 µM (%), ACVR2A, 1 µM, LanthaScreen Binding", "value": 4, "unit": "%"}, {"measurement": "pIC50", "setting": "FLT3 [3]", "value": 5.50}, {"measurement": "inhibition at 1 µM", "setting": "FLT3 [3]; [5]", "value": 61, "unit": "%"}, {"measurement": "Inhibition at 1 µM (%)", "setting": "FLT3 [3]; FLT3, 1 µM, ZLYTE, ATP Km app, listed as WEL028, 1 µM", "value": 58, "unit": "%"}, {"measurement": "inhibition at 1 µM", "setting": "FLT3 [3]; read-out: Inhibition at 1 µM (%), FLT3, 1 µM, ZLYTE, ATP Km app", "value": 64, "unit": "%"}, {"measurement": "Apparent fold selectivity", "setting": "FLT3 [4]", "value": 718, "unit": "fold"}, {"measurement": "inhibition at 1 µM", "setting": "RIPK3; [5]", "value": 1, "unit": "%"}, {"measurement": "inhibition at 1 µM", "setting": "RIPK3; [6]", "value": 2, "unit": "%"}, {"measurement": "inhibition at 1 µM", "setting": "PLK1; [5]", "value": 12, "unit": "%"}, {"measurement": "Inhibition at 1 µM (%)", "setting": "PLK1; PLK1, 1 µM, ZLYTE, ATP Km app, listed as WEL028, 1 µM", "value": 8, "unit": "%"}, {"measurement": "inhibition at 1 µM", "setting": "PLK1; read-out: Inhibition at 1 µM (%), PLK1, 1 µM, ZLYTE, ATP Km app", "value": 15, "unit": "%"}]}]}
